Reference: ChEMBL document CHEMBL3526110, “Preclinical evaluation of the metabolism and disposition of RRx-001, a novel investigative anticancer agent” (Drug Metab Dispos, 2012)

Tests used:
[1] = Ratio of drug level in dog blood to dog plasma at 20 uM after 30 mins; type: ADME, Canis lupus familiaris; settings: whole blood
Blood [2] = test: Drug metabolism in human whole blood assessed as [(S)-2-amino-5-(((R)-1-((carboxymethyl)amino)-3-((2-(3-(hydroxyimino)azetidin-1-yl)-2-oxoethyl)thio)-1-oxopropan-2-yl)amino)-5-oxopentanoic acid] formation at 20 uM by LC-MS/MS method; type: ADME, tissue-based
Blood [3] = test: Drug metabolism in human whole blood assessed as [(R)-2-amino-3-((2-(3-nitroazetidin-1-yl)-2-oxoethyl)thio)propanoic acid] formation at 20 uM by LC-MS/MS method; type: ADME, tissue-based
[4] = Ratio of drug level in monkey blood to monkey plasma at 20 uM after 30 mins; type: ADME, Macaca mulatta; settings: rhesus monkey, whole blood
[5] = Ratio of drug level in blood to plasma in Wistar Hanover rat at 10 mg/kg, iv administered as single dose after 0.083 hrs; type: ADME, organism-based; parameters: dose 10 mg/kg, route intravenous; settings: whole blood and plasma
[6] = Ratio of drug level in human blood to human plasma at 1 uM after 30 mins; type: ADME; settings: whole blood
Blood [7] = test: Drug level in Wistar Hanover rat blood at 10 mg/kg, iv administered as single dose after 168 hrs; type: ADME, organism-based; parameters: dose 10 mg/kg, route intravenous; settings: in vivo
Blood [8] = test: AUC (0 to t) in Wistar Hanover rat blood at 10 mg/kg, iv administered as single dose; type: ADME, organism-based; parameters: dose 10 mg/kg, route intravenous; settings: in vivo
[9] = Half life in Wistar Hanover rat plasma at 10 mg/kg, iv administered as single dose; type: ADME, organism-based; parameters: dose 10 mg/kg, route intravenous
Blood [10] = test: Drug metabolism in human whole blood assessed as [(R)-2-(2-amino-3-((2-(3,3-dinitroazetidin-1-yl)-2-oxoethyl)thio)propanamido)acetic acid] formation at 20 uM by LC-MS/MS method; type: ADME, tissue-based
Blood [11] = test: Retention time in human whole blood at 20 uM by LC-MS/MS method; type: ADME, tissue-based
[12] = Ratio of drug level in dog blood to dog plasma at 1 uM after 30 mins; type: ADME, Canis lupus familiaris; settings: whole blood
Blood [13] = test: Drug metabolism in human whole blood assessed as [(S)-2-amino-5-(((R)-1-((carboxymethyl)amino)-1-oxo-3-((2-oxo-2-(3-oxoazetidin-1-yl)ethyl)thio)propan-2-yl)amino)-5-oxopentanoic acid] formation at 20 uM by LC-MS/MS method; type: ADME, tissue-based
Blood [14] = test: Drug metabolism in human whole blood assessed as [(S)-2-amino-5-(((R)-1-((carboxymethyl)amino)-3-((2-(3-nitroazetidin-1-yl)-2-oxoethyl)thio)-1-oxopropan-2-yl)amino)-5-oxopentanoic acid] formation at 20 uM by LC-MS/MS method; type: ADME, tissue-based
Blood [15] = test: Drug metabolism in human whole blood assessed as [(S)-2-amino-5-(((R)-1-((carboxymethyl)amino)-3-((2-(3,3-dinitroazetidin-1-yl)-2-oxoethyl)thio)-1-oxopropan-2-yl)amino)-5-oxopentanoic acid] formation at 20 uM by LC-MS/MS method; type: ADME, tissue-based
[16] = Binding affinity to rat hemoglobin assessed as protein bound compound level at 1 uM; type: ADME; settings: read-out: PB (converted)
[17] = Binding affinity to dog hemoglobin assessed as protein bound compound level at 1 uM; type: ADME, Canis lupus familiaris; settings: read-out: PB (converted)
[18] = Drug excretion in Wistar Hanover rat urine at 10 mg/kg, iv administered as single dose after 0 to 8 hrs; type: ADME, organism-based; parameters: dose 10 mg/kg, route intravenous; settings: read-out: Drug excretion
Blood [19] = test: Retention time in human whole blood in presence of 0.1% formic acid in acetonitrile at 20 uM by LC-MS/MS method; type: ADME, tissue-based
Blood [20] = test: Retention time in rat whole blood at 20 uM by LC-MS/MS method; type: ADME, tissue-based
Blood [21] = test: Drug metabolism in rat whole blood assessed as [(S)-2-amino-5-(((R)-1-((carboxymethyl)amino)-3-((2-(3-nitroazetidin-1-yl)-2-oxoethyl)thio)-1-oxopropan-2-yl)amino)-5-oxopentanoic acid] formation at 20 uM by LC-MS/MS method; type: ADME, tissue-based
Plasma [22] = test: AUC (0 to t) in Wistar Hanover rat plasma at 10 mg/kg, iv administered as single dose; type: ADME, organism-based; parameters: dose 10 mg/kg, route intravenous; settings: in vivo
[23] = Volume of distribution in Wistar Hanover rat plasma at 10 mg/kg, iv administered as single dose; type: ADME, organism-based; parameters: dose 10 mg/kg, route intravenous
[24] = Drug excretion in Wistar Hanover rat feces at 10 mg/kg, iv administered as single dose measured on day 1; type: ADME, organism-based; parameters: dose 10 mg/kg, route intravenous; settings: faeces, read-out: Drug excretion
Blood [25] = test: Drug metabolism in rat whole blood assessed as [(S)-2-amino-5-(((R)-1-((carboxymethyl)amino)-3-((2-(3,3-dinitroazetidin-1-yl)-2-oxoethyl)thio)-1-oxopropan-2-yl)amino)-5-oxopentanoic acid] formation at 20 uM by LC-MS/MS method; type: ADME, tissue-based
Blood [26] = test: Drug metabolism in human whole blood assessed as (R)-2-amino-3-((2-(3,3-dinitroazetidin-1-yl)-2-oxoethyl)thio)propanoic acid] formation at 20 uM by LC-MS/MS method; type: ADME, tissue-based
[27] = Binding affinity to rat hemoglobin assessed as protein bound compound level at 20 uM; type: ADME; settings: read-out: PB (converted)
[28] = Stability in water; type: physicochemical; settings: buffer
Stomach = test: Drug level in Wistar Hanover rat stomach at 10 mg/kg, iv administered as single dose after 24 hrs; type: ADME, organism-based; parameters: dose 10 mg/kg, route intravenous; settings: in vivo
Blood [29] = test: Drug metabolism in rat whole blood assessed as (R)-2-amino-3-((2-(3,3-dinitroazetidin-1-yl)-2-oxoethyl)thio)propanoic acid] formation at 20 uM by LC-MS/MS method; type: ADME, tissue-based
Blood [30] = test: Drug level in Wistar Hanover rat blood at 10 mg/kg, iv administered as single dose after 24 hrs; type: ADME, organism-based; parameters: dose 10 mg/kg, route intravenous; settings: in vivo
[31] = Drug excretion in Wistar Hanover rat feces at 10 mg/kg, iv administered as single dose measured on day 2; type: ADME, organism-based; parameters: dose 10 mg/kg, route intravenous; settings: faeces, read-out: Drug excretion
[32] = Drug excretion in Wistar Hanover rat feces at 10 mg/kg, iv administered as single dose measured on day 7; type: ADME, organism-based; parameters: dose 10 mg/kg, route intravenous; settings: faeces, read-out: Drug excretion
[33] = Ratio of drug level in rat blood to rat plasma at 20 uM after 30 mins; type: ADME, cell-free; settings: whole blood
[34] = Stability in pH 7.0 buffer; type: physicochemical
[35] = Binding affinity to human hemoglobin assessed as protein bound compound level at 1 uM; type: ADME; settings: read-out: PB (converted)
Blood [36] = test: Retention time in rat whole blood in presence of 0.1% formic acid in water at 20 uM by LC-MS/MS method; type: ADME, tissue-based
[37] = Binding affinity to monkey hemoglobin assessed as protein bound compound level at 1 uM; type: ADME, Macaca mulatta; settings: rhesus monkey, read-out: PB (converted)
[38] = Drug excretion in Wistar Hanover rat urine at 10 mg/kg, iv administered as single dose after 168 hrs; type: ADME, organism-based; parameters: dose 10 mg/kg, route intravenous; settings: read-out: Drug excretion
[39] = Ratio of drug level in monkey blood to monkey plasma at 1 uM after 30 mins; type: ADME, Macaca mulatta; settings: rhesus monkey, whole blood
[40] = Binding affinity to human hemoglobin assessed as protein bound compound level at 20 uM; type: ADME; settings: read-out: PB (converted)
Plasma [41] = test: AUC (0 to infinity) in Wistar Hanover rat plasma at 10 mg/kg, iv administered as single dose; type: ADME, organism-based; parameters: time infinity, dose 10 mg/kg, route intravenous; settings: in vivo
Blood [42] = test: Drug metabolism in rat whole blood assessed as [(R)-2-amino-3-((2-(3-nitroazetidin-1-yl)-2-oxoethyl)thio)propanoic acid] formation at 20 uM by LC-MS/MS method; type: ADME, tissue-based
[43] = Ratio of drug level in human blood to human plasma at 20 uM after 30 mins; type: ADME; settings: whole blood
[44] = Ratio of drug level in rat blood to rat plasma at 1 uM after 30 mins; type: ADME, cell-free; settings: whole blood
Blood [45] = test: Drug metabolism in rat whole blood assessed as [(R)-2-(2-amino-3-((2-(3,3-dinitroazetidin-1-yl)-2-oxoethyl)thio)propanamido)acetic acid] formation at 20 uM by LC-MS/MS method; type: ADME, tissue-based
[46] = Drug level in Wistar Hanover rat bile at 10 mg/kg, iv administered as single dose after 24 hrs; type: ADME, organism-based; parameters: dose 10 mg/kg, route intravenous; settings: in vivo
Blood [47] = test: Retention time in human whole blood in presence of 0.1% formic acid in water at 20 uM by LC-MS/MS method; type: ADME, tissue-based
[48] = Volume of distribution in Wistar Hanover rat blood at 10 mg/kg, iv administered as single dose; type: ADME, organism-based; parameters: dose 10 mg/kg, route intravenous; settings: whole blood
Blood [49] = test: Drug level in Wistar Hanover rat blood at 10 mg/kg, iv administered as single dose after 168 hrs relative to total radioactivity; type: ADME, organism-based; parameters: dose 10 mg/kg, route intravenous; settings: in vivo
[50] = Half life in Wistar Hanover rat blood at 10 mg/kg, iv administered as single dose; type: ADME, organism-based; parameters: dose 10 mg/kg, route intravenous; settings: whole blood
Blood [51] = test: Drug metabolism in rat whole blood assessed as [(S)-2-amino-5-(((R)-1-((carboxymethyl)amino)-3-((2-(3-(hydroxyimino)azetidin-1-yl)-2-oxoethyl)thio)-1-oxopropan-2-yl)amino)-5-oxopentanoic acid] formation at 20 uM by LC-MS/MS method; type: ADME, tissue-based
[52] = Binding affinity to monkey hemoglobin assessed as protein bound compound level at 20 uM; type: ADME, Macaca mulatta; settings: rhesus monkey, read-out: PB (converted)
Nucleic Acid = test: Ratio of drug level in blood to plasma in Wistar Hanover rat at 10 mg/kg, iv administered as single dose after 168 hrs; type: ADME, organism-based; parameters: dose 10 mg/kg, route intravenous; settings: in vivo
Blood [53] = test: Drug metabolism in rat whole blood assessed as [(S)-2-amino-5-(((R)-1-((carboxymethyl)amino)-1-oxo-3-((2-oxo-2-(3-oxoazetidin-1-yl)ethyl)thio)propan-2-yl)amino)-5-oxopentanoic acid] formation at 20 uM by LC-MS/MS method; type: ADME, tissue-based
Blood [54] = test: Retention time in rat whole blood in presence of 0.1% formic acid in acetonitrile at 20 uM by LC-MS/MS method; type: ADME, tissue-based
Blood [55] = test: Drug metabolism in rat whole blood treated with 20 uM RRx-001 assessed as compound formation by LC-MS/MS method; type: ADME, tissue-based
Blood [56] = test: Drug metabolism in human whole blood treated with 20 uM RRx-001 assessed as compound formation by LC-MS/MS method; type: ADME, tissue-based

## O=C(CBr)N1CC([N+](=O)[O-])([N+](=O)[O-])C1 [NIBROZETONE]
[1]
  blood plasma ratio at 0.5 h, 20 µM: 1.2
Blood [2]
  Drug metabolism: metabolite_detected
Blood [3]
  Drug metabolism: metabolite_detected
[4]
  blood plasma ratio at 0.5 h, 20 µM: 1.5
[5]
  blood plasma ratio at 0.083 h: 12.4
[6]
  blood plasma ratio at 0.5 h, 1 µM: 1
Blood [7]
  Drug uptake: 69600 ngequiv/g
Blood [8]
  AUCt: 14900000 ngequiv.hr/g
[9]
  half-life: 66.1 h
Blood [10]
  Drug metabolism: metabolite_detected
Blood [11]
  Retention_time: 15.4 min
[12]
  blood plasma ratio at 0.5 h, 1 µM: 0.83
Blood [13]
  Drug metabolism: metabolite_detected
Blood [14]
  Drug metabolism: metabolite_detected
Blood [15]
  Drug metabolism: metabolite_detected
[16]
  fraction unbound at 1 µM: 0.31
[17]
  fraction unbound at 1 µM: 0.77
[18]
  dose excreted: 26%
Blood [19]
  Retention_time: 15.1 min
Blood [20]
  Retention_time: 15.4 min
Blood [21]
  Drug metabolism: metabolite_detected
Plasma [22]
  AUCt: 160000 ngequiv.hr/g
[23]
  Vd: 0.926 L/kg
[24]
  dose excreted: 1.5%
Blood [25]
  Drug metabolism: metabolite_detected
Blood [26]
  Drug metabolism: metabolite_detected
[27]
  fraction unbound at 20 µM: 0.21
[28]
  Stability: Stable
Stomach
  Drug uptake: Not Active
Blood [29]
  Drug metabolism: metabolite_detected
Blood [30]
  Drug uptake: 76500 ngequiv/g
[31]
  dose excreted: 0.3%
[32]
  dose excreted: 0.06%
[33]
  blood plasma ratio at 0.5 h, 20 µM: 4
[34]
  Stability: Stable
[35]
  fraction unbound at 1 µM: 0.71
Blood [36]
  Retention_time: 12.8 min
[37]
  fraction unbound at 1 µM: 0.902
[38]
  dose excreted at 168 h: 36.3%
[39]
  blood plasma ratio at 0.5 h, 1 µM: 0.82
[40]
  fraction unbound at 20 µM: 0.78
Plasma [41]
  AUC: 200000 ngequiv.hr/g
Blood [42]
  Drug metabolism: metabolite_detected
[43]
  blood plasma ratio at 0.5 h, 20 µM: 0.99
[44]
  blood plasma ratio at 0.5 h, 1 µM: 2.1
Blood [45]
  Drug metabolism: metabolite_detected
[46]
  Drug uptake: Not Active
Blood [47]
  Retention_time: 12.8 min
[48]
  Vd: 0.084 L/kg
Blood [49]
  Drug uptake: 61.8%
[50]
  half-life: > 168 h
Blood [51]
  Drug metabolism: metabolite_detected
[52]
  fraction unbound at 20 µM: 0.8
Nucleic Acid
  Ratio: 222
Blood [53]
  Drug metabolism: metabolite_detected
Blood [54]
  Retention_time: 15.1 min

## N[C@@H](CSCC(=O)N1CC([N+](=O)[O-])C1)C(=O)O
Blood [19]
  Retention_time: 4.3 min
Blood [55]
  Drug metabolism: metabolite_detected
Blood [36]
  Retention_time: 4.7 min
Blood [47]
  Retention_time: 4.7 min
Blood [56]
  Drug metabolism: metabolite_detected
Blood [54]
  Retention_time: 4.3 min
